Where two headings read alike, the source gives them in different places. Blank lines part the entries; values can stand above or below the compound they belong to.
Assays:
DoHH2 = assay: CellTiter-Glo proliferation/viability assay; type: cell-based, human; conditions: Homo sapiens, read-out: DoHH2 EC50
Ramos = assay: CellTiter-Glo proliferation/viability assay; type: cell-based, human
Lyn [1] = molecular target: T1, Lyn (Homo sapiens (Human), UniProt P07948); conditions: read-out: Lyn IC50
Src [2] = molecular target: T2, Src (Homo sapiens (Human), UniProt P12931); assay: biochemical
BTK = BTK (Homo sapiens (Human), UniProt Q06187)
Src [3] = molecular target: T2, Src; conditions: read-out: Src IC50
Lyn [4] = molecular target: T1, Lyn; assay: biochemical
[5] = Homo sapiens, Ramos; 48 hrs; read-out: Ramos EC50
[6] = Homo sapiens, Ramos, 48 h; read-out: Ramos EC50

Sequence of BTK (Q06187 whole entry): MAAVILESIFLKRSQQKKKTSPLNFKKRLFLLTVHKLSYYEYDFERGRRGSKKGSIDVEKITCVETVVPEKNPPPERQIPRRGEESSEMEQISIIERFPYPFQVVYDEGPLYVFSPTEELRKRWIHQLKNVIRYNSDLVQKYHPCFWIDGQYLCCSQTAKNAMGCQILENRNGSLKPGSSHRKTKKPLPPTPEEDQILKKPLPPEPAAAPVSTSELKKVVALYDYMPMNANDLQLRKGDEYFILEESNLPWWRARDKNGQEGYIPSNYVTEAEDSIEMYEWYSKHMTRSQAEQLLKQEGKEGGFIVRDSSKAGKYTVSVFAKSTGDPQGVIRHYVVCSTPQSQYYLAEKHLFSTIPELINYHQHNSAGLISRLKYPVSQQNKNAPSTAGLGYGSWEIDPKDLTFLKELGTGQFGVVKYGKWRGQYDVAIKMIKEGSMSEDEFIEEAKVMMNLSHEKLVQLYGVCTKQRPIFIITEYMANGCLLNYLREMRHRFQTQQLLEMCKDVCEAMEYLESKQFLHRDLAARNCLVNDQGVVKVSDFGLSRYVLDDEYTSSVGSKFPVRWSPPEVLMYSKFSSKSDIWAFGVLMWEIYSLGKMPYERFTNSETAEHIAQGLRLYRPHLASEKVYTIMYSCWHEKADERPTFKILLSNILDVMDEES
T1 sequence (P07948 whole entry): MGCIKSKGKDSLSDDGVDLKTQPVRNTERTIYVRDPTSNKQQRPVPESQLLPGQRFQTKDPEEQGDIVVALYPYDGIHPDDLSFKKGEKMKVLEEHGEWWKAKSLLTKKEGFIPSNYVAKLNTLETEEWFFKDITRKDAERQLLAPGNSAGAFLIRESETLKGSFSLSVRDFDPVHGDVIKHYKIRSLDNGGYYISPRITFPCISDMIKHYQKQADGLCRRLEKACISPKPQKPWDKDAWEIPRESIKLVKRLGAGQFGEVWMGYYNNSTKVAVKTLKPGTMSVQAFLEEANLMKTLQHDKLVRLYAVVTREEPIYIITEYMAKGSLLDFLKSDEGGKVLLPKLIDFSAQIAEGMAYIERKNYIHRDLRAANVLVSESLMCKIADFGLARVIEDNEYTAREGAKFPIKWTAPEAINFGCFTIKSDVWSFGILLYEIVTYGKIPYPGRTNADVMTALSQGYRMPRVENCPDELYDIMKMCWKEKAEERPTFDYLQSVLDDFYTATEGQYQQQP
T2 sequence (P12931 whole entry, looked up): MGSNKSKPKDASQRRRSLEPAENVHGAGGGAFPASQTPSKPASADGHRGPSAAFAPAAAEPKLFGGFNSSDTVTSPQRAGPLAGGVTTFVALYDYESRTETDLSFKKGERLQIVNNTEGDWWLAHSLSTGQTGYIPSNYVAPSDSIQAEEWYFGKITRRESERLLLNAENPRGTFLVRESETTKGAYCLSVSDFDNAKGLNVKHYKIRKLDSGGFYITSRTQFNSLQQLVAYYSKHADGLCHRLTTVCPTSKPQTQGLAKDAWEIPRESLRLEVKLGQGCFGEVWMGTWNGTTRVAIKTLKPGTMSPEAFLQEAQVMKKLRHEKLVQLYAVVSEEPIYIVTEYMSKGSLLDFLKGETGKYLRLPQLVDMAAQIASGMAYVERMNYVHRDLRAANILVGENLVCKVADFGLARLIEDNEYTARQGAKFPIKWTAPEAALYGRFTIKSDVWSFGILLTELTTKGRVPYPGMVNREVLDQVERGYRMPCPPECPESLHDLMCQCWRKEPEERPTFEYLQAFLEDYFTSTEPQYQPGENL

Compound: CCN(CC)CCOc1cnc(Nc2cc3c(cn2)cc(-c2ccccc2)c(=O)n3CC)nc1 [Compound 3, 7-[5-(2-Diethylamino-ethoxy)-pyrimidin-2-ylamino]-1-ethyl-3-phenyl-1H-[1,6]naphthyridin-2-one]
EC50 (DoHH2; DOHH-2, 48 hrs): 1000 to 10000 nM
EC50 (Ramos; [5]): > 10000 nM
IC50 (Lyn [1]): > 5000 nM
IC50 (Src [2]): 1000 to 5000 nM
IC50 (BTK): 1000 to 5000 nM

Compound: CCn1c(=O)c(-c2ccccc2)cc2cnc(Nc3ccc(C(=O)N4CCOCC4)cn3)cc21 [Compound 4, 1-Ethyl-7-[5-(morpholine-4-carbonyl)-pyridin-2-ylamino]-3-phenyl-1H-[1,6]naphthyridin-2-one]
EC50 (DoHH2; DOHH-2, 48 hrs): 1000 to 10000 nM
EC50 (Ramos; [5]): < 1000 nM
IC50 (Lyn [1]): < 100 nM
IC50 (Src [2]): 100 to 1000 nM
IC50 (BTK; read-out: BTK IC50): > 5000 nM

Compound: CCN(CC)CCOc1ccc(Nc2cc3c(cn2)cc(-c2ccccc2)c(=O)n3C)nc1 [Compound 15, 7-[5-(2-Diethylamino-ethoxy)-pyridin-2-ylamino]-1-methyl-3-phenyl-1H-[1,6]naphthyridin-2-one]
EC50 (DoHH2; DOHH-2, 48 hrs): < 1000 nM
EC50 (Ramos; [5]): 1000 to 10000 nM
IC50 (Src [3]): < 100 nM
IC50 (Lyn [4]): 100 to 1000 nM
IC50 (BTK; read-out: BTK IC50): < 100 nM

Compound: CC#Cc1cc2cnc(Nc3ccc(C)cn3)cc2n(CC)c1=O [Compound 21]
EC50 (DoHH2; DOHH-2, 48 hrs): 1000 to 10000 nM
EC50 (Ramos; [5]): 1000 to 10000 nM
IC50 (Lyn [1]): > 5000 nM
IC50 (Src [2]): 100 to 1000 nM
IC50 (BTK; read-out: BTK IC50): > 5000 nM

Compound: CCn1c(=O)c(C2CCCC2)cc2cnc(Nc3ccc(C)cn3)cc21 [Compound 31, 3-Cyclopentyl-1-ethyl-7-(5-methyl-pyridin-2-ylamino)-1H-[1,6]naphthayridin-2-one]
EC50 (DoHH2; DOHH-2, 48 hrs): > 10000 nM
EC50 (Ramos; [6]): 1000 to 10000 nM
IC50 (Lyn [1]): > 5000 nM
IC50 (Src [2]): 100 to 1000 nM
IC50 (BTK; read-out: BTK IC50): > 5000 nM

Compound: CCn1c(=O)c(C#CCOC)cc2cnc(Nc3ccc(C)cn3)cc21 [Compound 32]
EC50 (DoHH2; DOHH-2, 48 hrs): > 10000 nM
EC50 (Ramos; [6]): > 10000 nM
IC50 (Lyn [1]): > 5000 nM
IC50 (Src [2]): 1000 to 5000 nM
IC50 (BTK; read-out: BTK IC50): > 5000 nM

Compound: CCn1c(=O)c(C2CCC2)cc2cnc(Nc3ccc(C)cn3)cc21 [Compound 37, 3-Cyclobutyl-1-ethyl-7-(5-methyl-pyridin-2-ylamino)-1H-[1,6]naphthyridin-2-one]
EC50 (DoHH2; DOHH-2, 48 hrs): > 10000 nM
EC50 (Ramos; [5]): > 10000 nM
IC50 (Src [3]): > 5000 nM
IC50 (Lyn [4]): 1000 to 5000 nM
IC50 (BTK): 100 to 1000 nM

Compound: CCn1c(=O)c(-c2cccc(C)c2)cc2cnc(Nc3ccc(C)cn3)cc21 [Compound 41, 1-ethyl-7-(5-methylpyridin-2-ylamino)-3-m-tolyl-1,6-naphthyridin-2(1H)-one]
EC50 (DoHH2; DOHH-2, 48 hrs): > 10000 nM
EC50 (Ramos; [6]): > 10000 nM
IC50 (Src [3]): > 5000 nM
IC50 (Lyn [4]): 1000 to 5000 nM
IC50 (BTK; read-out: BTK IC50): > 5000 nM

Compound: CCN(CC)CCOc1ccc(Nc2cc3c(cn2)cc(C(C)C)c(=O)n3C)nc1 [Compound 59, 7-[5-(2-Diethylamino-ethoxy)-pyridin-2-ylamino]-3-isopropyl-1-methyl-1H-[1,6]naphthyridin-2-one]
EC50 (DoHH2; DOHH-2, 48 hrs): 1000 to 10000 nM
EC50 (Ramos; [5]): > 10000 nM
IC50 (Src [2]): 100 to 1000 nM

Compound: CCn1c(=O)c(-c2ccccc2)cc2cnc(Nc3ccnc(O)n3)cc21 [Compound 63, 1-Ethyl-7-(2-hydroxy-pyrimidin-4-ylamino)-3-phenyl-1H-[1,6]naphthyridin-2-one]
EC50 (DoHH2; DOHH-2, 48 hrs): 1000 to 10000 nM
EC50 (Ramos; [5]): 1000 to 10000 nM
IC50 (Src [3]): < 100 nM
IC50 (Lyn [4]): 100 to 1000 nM
IC50 (BTK): 1000 to 5000 nM

Compound: CCn1c(=O)c(-c2cc(SC)ccc2F)cc2cnc(Nc3ccc(N(C)C4CCN(C)CC4)cn3)cc21 [Compound 116, 1-ethyl-3-(2-fluoro-5-(methylthio)phenyl)-7-((5-(methyl(1-methylpiperidin-4-yl)amino)pyridin-2-yl)amino)-1,6-naphthyridin-2(1H)-one]
EC50 (DoHH2; DOHH-2, 48 h): < 1000 nM
EC50 (Ramos; Homo sapiens, Ramos, 48 h, read-out: Ramos EC50): 1000 to 10000 nM
IC50 (Lyn [4]): < 100 nM

Compound: CCn1c(=O)c(-c2c(F)ccc(F)c2O)cc2cnc(Nc3ccc(N(C)C4CCN(C)CC4)cn3)cc21 [Compound 123, 3-(3,6-difluoro-2-hydroxyphenyl)-1-ethyl-7-((5-(methyl(1-methylpiperidin-4-yl)amino)pyridin-2-yl)amino)-1,6-naphthyridin-2(1H)-one]
EC50 (DoHH2; DOHH-2, 48 hrs): < 1000 nM
EC50 (Ramos; [5]): 1000 to 10000 nM
IC50 (Src [3]): < 100 nM
IC50 (Lyn [1]): < 100 nM
IC50 (BTK; read-out: BTK IC50): < 100 nM

Compound: CCn1c(=O)c(-c2c(C)cc(F)cc2C)cc2cnc(Nc3ccc(N(C)C4CCN(C)CC4)cn3)cc21 [Compound 124, 1-ethyl-3-(4-fluoro-2,6-dimethylphenyl)-7-((5-(methyl(1-methylpiperidin-4-yl)amino)pyridin-2-yl)amino)-1,6-naphthyridin-2(1H)-one]
EC50 (DoHH2; DOHH-2, 48 hrs): < 1000 nM
EC50 (Ramos; [5]): > 10000 nM
IC50 (Src [3]): < 100 nM
IC50 (Lyn [1]): < 100 nM
IC50 (BTK; read-out: BTK IC50): < 100 nM

Compound: CN1CCC(N(C)c2ccc(Nc3cc4c(cn3)cc(-c3c(F)cccc3F)c(=O)n4C3CCCC3)nc2)CC1 [Compound 139, 1-cyclopentyl-3-(2,6-difluorophenyl)-7-((5-(methyl(1-methylpiperidin-4-yl)amino)pyridin-2-yl)amino)-1,6-naphthyridin-2(1H)-one]
EC50 (DoHH2; DOHH-2, 48 hrs): < 1000 nM
EC50 (Ramos; [6]): 1000 to 10000 nM
IC50 (Src [3]): < 100 nM
IC50 (Lyn [1]): < 100 nM
IC50 (BTK; read-out: BTK IC50): < 100 nM

Compound: CN1CCC(N(C)c2ccc(Nc3cc4[nH]c(=O)c(-c5c(F)cccc5F)cc4cn3)nc2)CC1 [Compound 140, 3-(2,6-difluorophenyl)-7-((5-(methyl(1-methylpiperidin-4-yl)amino)pyridin-2-yl)amino)-1,6-naphthyridin-2(1H)-one]
EC50 (DoHH2; DOHH-2, 48 hrs): < 1000 nM
EC50 (Ramos; [5]): 1000 to 10000 nM
IC50 (Src [3]): < 100 nM
IC50 (Lyn [1]): < 100 nM
IC50 (BTK; read-out: BTK IC50): < 100 nM

More lines, main results first:

EC50 (Ramos; [5]): > 10000 nM
IC50 (Src [3]): > 5000 nM
IC50 (Lyn [4]): 1000 to 5000 nM
IC50 (BTK; read-out: BTK IC50): > 5000 nM
Compound: CCn1c(=O)c(-c2nccs2)cc2cnc(Nc3ccc(C)cn3)cc21 [Compound 68]
EC50 (DoHH2; DOHH-2, 48 hrs): 1000 to 10000 nM

EC50 (Ramos; [5]): > 10000 nM
IC50 (Src [3]): < 100 nM
IC50 (Lyn [4]): 100 to 1000 nM
IC50 (BTK): 1000 to 5000 nM
Compound: CCn1c(=O)c(-c2ccccc2Cl)cc2cnc(Nc3ccc(F)cn3)cc21 [Compound 71, 3-(2-chlorophenyl)-1-ethyl-7-(5-fluoropyridin-2-ylamino)-1,6-naphthyridin-2(1H)-one]
EC50 (DoHH2; DOHH-2, 48 hrs): 1000 to 10000 nM

EC50 (Ramos; [5]): 1000 to 10000 nM
IC50 (Src [3]): < 100 nM
IC50 (Lyn [4]): 1000 to 5000 nM
Compound: CCN(CC)CCOc1ccc(Nc2cc3c(cn2)cc(-c2ccccc2)c(=O)n3C2CCCCC2)nc1 [Compound 74, 1-cyclohexyl-7-(5-(2-(diethylamino)ethoxy)pyridin-2-ylamino)-3-phenyl-1,6-naphthyridin-2(1H)-one]
EC50 (DoHH2; DOHH-2, 48 hrs): 1000 to 10000 nM

EC50 (Ramos; [5]): 1000 to 10000 nM
IC50 (Src [3]): < 100 nM
IC50 (Lyn [4]): 100 to 1000 nM
IC50 (BTK; read-out: BTK IC50): < 100 nM
Compound: CCN(CC)CCOc1ccc(Nc2cc3c(cn2)cc(-c2c(F)cc(Cl)cc2F)c(=O)n3CC)nc1 [Compound 98, 3-(4-chloro-2,6-difluorophenyl)-7-((5-(2-(diethylamino)ethoxy)pyridin-2-yl)amino)-1-ethyl-1,6-naphthyridin-2(1H)-one]
EC50 (DoHH2; DOHH-2, 48 hrs): 1000 to 10000 nM

EC50 (Ramos; [5]): > 10000 nM
IC50 (Src [3]): < 100 nM
IC50 (Lyn [4]): 100 to 1000 nM
IC50 (BTK; read-out: BTK IC50): > 5000 nM
Compound: CCN(CC)CCOc1ccc(Nc2cc3c(cn2)cc(-c2cccnc2)c(=O)n3CC)nc1 [Compound 103, 7-((5-(2-(diethylamino)ethoxy)pyridin-2-yl)amino)-1-ethyl-3-(pyridin-3-yl)-1,6-naphthyridin-2(1H)-one]
EC50 (DoHH2; DOHH-2, 48 hrs): 1000 to 10000 nM

EC50 (Ramos; [5]): 1000 to 10000 nM
IC50 (Src [3]): < 100 nM
IC50 (Lyn [4]): 100 to 1000 nM
IC50 (BTK): 1000 to 5000 nM
Compound: CCN(CC)CCOc1ccc(Nc2cc3c(cn2)cc(-c2cccc(SC)c2)c(=O)n3CC)nc1 [Compound 105, 7-((5-(2-(diethylamino)ethoxy)pyridin-2-yl)amino)-1-ethyl-3-(3-(methylthio)phenyl)-1,6-naphthyridin-2(1H)-one]
EC50 (DoHH2; DOHH-2, 48 hrs): 1000 to 10000 nM

EC50 (Ramos; [5]): > 10000 nM
IC50 (Src [3]): > 5000 nM
IC50 (Lyn [4]): 100 to 1000 nM
IC50 (BTK; read-out: BTK IC50): < 100 nM
Compound: CCN(CC)CCOc1ccc(Nc2cc3c(cn2)cc(-c2ccccc2Cl)c(=O)n3CC)nc1 [Compound 106, 3-(2-chlorophenyl)-7-((5-(2-(diethylamino)-ethoxy)pyridin-2-yl)amino)-1-ethyl-1,6-naphthyridin-2(1H)-one]
EC50 (DoHH2; DOHH-2, 48 hrs): < 1000 nM

EC50 (Ramos; [5]): 1000 to 10000 nM
IC50 (Src [3]): < 100 nM
IC50 (Lyn [1]): < 100 nM
IC50 (BTK; read-out: BTK IC50): < 100 nM
Compound: CN(C)CCCn1c(=O)c(-c2c(F)cccc2F)cc2cnc(Nc3ccc(F)cn3)cc21 [Compound 130, 3-(2,6-difluorophenyl)-1-(3-(dimethylamino)propyl)-7-((5-fluoropyridin-2-yl)amino)-1,6-naphthyridin-2(1H)-one]
EC50 (DoHH2; DOHH-2, 48 hrs): < 1000 nM

EC50 (Ramos; [5]): > 10000 nM
IC50 (Src [3]): < 100 nM
IC50 (Lyn [1]): < 100 nM
IC50 (BTK): 100 to 1000 nM
Compound: O=c1c(-c2c(F)cccc2F)cc2cnc(Nc3ccc(F)cn3)cc2n1CCCN1CCOCC1 [Compound 131, 3-(2,6-difluorophenyl)-7-((5-fluoropyridin-2-yl)amino)-1-(3-morpholinopropyl)-1,6-naphthyridin-2(1H)-one]
EC50 (DoHH2; DOHH-2, 48 hrs): < 1000 nM

EC50 (Ramos; [5]): > 10000 nM
IC50 (Src [3]): < 100 nM
IC50 (Lyn [1]): < 100 nM
IC50 (BTK; read-out: BTK IC50): < 100 nM
Compound: CN1CCN(CCCn2c(=O)c(-c3c(F)cccc3F)cc3cnc(Nc4ccc(F)cn4)cc32)CC1 [Compound 132, 3-(2,6-difluorophenyl)-7-((5-fluoropyridin-2-yl)amino)-1-(3-(4-methylpiperazin-1-yl)propyl)-1,6-naphthyridin-2(1H)-one]
EC50 (DoHH2; DOHH-2, 48 hrs): < 1000 nM

EC50 (Ramos; [5]): > 10000 nM
IC50 (Lyn [1]): > 5000 nM
IC50 (Src [2]): 1000 to 5000 nM
Compound: O=c1c(-c2c(F)cccc2F)cc2cnc(Nc3ccc(F)cn3)cc2n1[C@H]1CCNC1 [Compound 149, (S)-3-(2,6-difluorophenyl)-7-((5-fluoropyridin-2-yl)amino)-1-(pyrrolidin-3-yl)-1,6-naphthyridin-2(1H)-one]
EC50 (DoHH2; DOHH-2, 48 hrs): 1000 to 10000 nM

From patent US9714247B2, “Multiple kinase pathway inhibitors” (Mannkind Corporation, priority 2012, dated 2017)
